Measurements reported in patent publication EP1513800B1, “N-BENZOYLUREIDOCINNAMATE DERIVATIVES, METHOD FOR PRODUCTION AND USE THEREOF” (Sanofi-Aventis Deutschland GmbH, priority 2002, dated 2003).

System: Humane Glykogenphosphorylase a
Assay: Glycogen phosphorylase a activity test (reverse direction, release of inorganic phosphate from glucose-1-phosphate)
Type: biochemical
Conditions: 10 µM test substance; in vitro; 40 min at room temperature; absorbance at 820 nm; duplicate determinations
Protocol: Glykogenphosphorylase a Aktivitätstest
Der Effekt von Verbindungen auf die Aktivität der aktiven Form der Glykogenphosphorylase (GPa) wurde in der umgekehrten Richtung, durch Verfolgen der Glykogensynthese aus Glukose-1-Phosphat an Hand der Bestimmung der Freisetzung von anorganischem Phosphat, gemessen. […] Prüfsubstanzen wurden als 10 mM Lösung in DMSO zubereitet und auf 50 µM mit Pufferlösung T verdünnt. Zu 10 µl dieser Lösung wurden 10 µl 37,5 mM Glukose, gelöst in Pufferlösung T und 5 mg/mL Glykogen, sowie 10 µl einer Lösung von humaner Glykogenphosphorylase a (10 µg Protein/ml) und 20 µl Glukose-1-Phosphat, 2,5 mM zugegeben. Der basale Wert der Glykogenphosphorylase a Aktivität in Abwesenheit von Prüfsubstanz wurde durch Zugabe von 10 µl Pufferlösung T (0,1 % DMSO) bestimmt. […] Zur Bestimmung der Hintergrundsabsorption wurde in einem separaten Ansatz die Stop-Lösung unmittelbar nach Zugabe der Glukose-1-Phosphatlösung zugegeben. Dieser Test wurde mit einer Konzentrationen von 10 µM der Prüfsubstanz durchgeführt, um die jeweilige Hemmung der Glykogenphosphorylase a in vitro durch die Prüfsubstanz zu bestimmen. Tabelle 2: Biologische Aktivität

% Inhibition bei 10 µM | Compound
101% | O=C(O)/C=C/c1ccccc1NC(=O)NC(=O)c1cc(F)c(F)cc1Cl [compound 2, 3-{2-[3-(2-Chloro-4,5-difluorobenzoyl)-ureido]-phenyl}-acrylsäure]
104% | COC(=O)C=Cc1cc(C(=O)O)ccc1NC(=O)NC(=O)c1cc(F)c(F)cc1Cl [compound 12, 4-[3-(2-Chloro-4,5-difluorobenzoyl)-ureido]-3-(2-methoxycarbonyl-vinyl)-benzoesäure]
